# Measured values: publication PMC7153278, “Discovery of Membrane-Bound Pyrophosphatase Inhibitors Derived from an Isoxazole Fragment” (ACS Medicinal Chemistry Letters, 2020)
# Assays:
# [1] = target: Thermotoga maritima mPPase (TmPPase) (Thermotoga maritima, UniProt Q9S5X0); assay: TmPPase inhibition assay (96-well plate, orthophosphate determination); assay type: biochemical; details: computed using the pIC50 and the Heavy Atom Count (LEHA) normalization method, Discovery Studio
# Protocol: The inhibition assay was measured in 96 well plate assay as previously reported.5,6 Briefly, 1 µL of purified TmPPase (13 mg/mL) was reactivated in 99 µL of reactivation buffer (20 mM 2-(N-morpholino) ethanesulfonic acid (MES) pH 6.5, 3.5% (v/v) glycerol, 2 mM dithiothreitol (DTT), 4.5% dodecyl maltoside (DDM) and 12 mg/mL L-α-phosphatidylcholine from soybean) and incubated at 55 °C for 15 min. For the assay, to each tube strips, 0.2 µL of the reactivated enzyme was added to 14.8 µL of reaction buffer (200 mM Tris-Cl pH 8.0, 8.0 mM MgCl2, 333 mM KCl, and 67 mM NaCl) and 25 µL of inhibitor. The reaction mixtures were sealed with an adhesive sealing sheet (Thermo Scientific) and incubated at 71 °C for 5 min. The reactions were started with the addition of 10 µL of 2 mM sodium pyrophosphate, further incubation at 71 °C for 5 min and stopped by placing the reaction mixtures on ice for 10 min. The color development was done with the addition of ammonium heptamolybdate + ascorbic acid solution on ice for 10 min and then 90 µL of arsenic solution, at room temperature, for a minimum of 30 min. 180 µL of each reaction mixtures was then transferred into a clear 96 well polystyrene microplate and the absorbance was measured at 860 nm using a microplate spectrophotometer (MultiSkan Go, Thermo Scientific). The pilot inhibitor screening of 16 phosphate-mimicking fragments was done at 100 μM inhibitor concentration. Further screening was done with three different concentrations; 1 μM, 5 μM and 50 μM for soluble compounds, and 1 μM, 5 μM, and 20 μM for sparingly soluble compounds.6 The best hits were validated using 8 concentrations in triplicate in TmPPase.
# The potent hits 12k and 12l compounds were then tested on the P. falciparum (PfPPase-VP1) membrane fractions expressed in baculovirus-infected insect cells (the expression method and further enzyme analysis will be described in more detail elsewhere). Briefly, to each tube strips, 2.4 µL of PfPPase-VP1 membrane fraction (5 mg/mL) was added into 12.6 µL of reaction buffer (200 mM Tris-Cl pH 8.0, 8.0 mM MgCl2, 333 mM KCl, 67 mM NaCl, 3.3 mM NaF, and 17 μM Gramicidin D) and 25 µL of inhibitor. The reaction mixtures were incubated at 30 °C for 5 min and the assay was started by the addition of 10 µL of 2 mM sodium pyrophosphate and further incubation at 30 °C for 10 min. The reaction termination and color development were done as before.
# The in vitro anti-plasmodial activity assay strain 3D7 was maintained in culture as described previously.7 Briefly, parasites were cultured in O+ human erythrocytes at 5% haematocrit in RPMI - 1640 medium supplemented with 0.5% Albumax II (Gibco, Carlsbad, CA, USA), 200 μM hypoxanthine (Sigma, St. Louis, MO, USA) and 20 μg/mL gentamycin (Gibco). Parasites were synchronized with the sorbitol method as described. 8 Test compound was dissolved in DMSO to make a stock solution of 10 mM. Two -fold serial dilutions of the test compound were made in the culture medium to cover the range of 400 µM – 400 nM. Fifty microliters of each dilution were mixed in 96 well plate with 150 µL of 2% haematocrit of 0.5% parasitemia (ring stage). DMSO concentration in the highest compound concentration w as 0.1%. After 72 h incubation at 37 °C, the parasite growth was quantified using fluorescent SYBR Green I ® -based assay as described. 9 The half-maximal inhibitory concentration (IC 50) of the test compound was assessed using the non-linear regression fit model in Prism 7 (GraphPad Software). The potent anti-malarial drug, artemisinin, was use in parallel as a positive control. Each concentration of the test compound was tested in duplicate and the assay was repeated three times. The mean and standard deviation of the three repeats were used to estimate the IC50.
# IC50 determinations were done using R 3.6.110 and the n-parameter logistic regression (nplr) package11 version 0.1-7. In this package, the weighted nplr, given x (compound concentrations) and […]
# [2] = target: P. falciparum vacuolar H+-translocating pyrophosphatase (PfPPase-VP1) (Plasmodium falciparum, UniProt Q8IKR1); assay: PfPPase-VP1 inhibition assay on membrane fractions from baculovirus-infected insect cells; assay type: biochemical; details: PfPPase-VP1 in the membrane
# Sequence of P. falciparum vacuolar H+-translocating pyrophosphatase (PfPPase-VP1) (Q8IKR1 entry or part of it): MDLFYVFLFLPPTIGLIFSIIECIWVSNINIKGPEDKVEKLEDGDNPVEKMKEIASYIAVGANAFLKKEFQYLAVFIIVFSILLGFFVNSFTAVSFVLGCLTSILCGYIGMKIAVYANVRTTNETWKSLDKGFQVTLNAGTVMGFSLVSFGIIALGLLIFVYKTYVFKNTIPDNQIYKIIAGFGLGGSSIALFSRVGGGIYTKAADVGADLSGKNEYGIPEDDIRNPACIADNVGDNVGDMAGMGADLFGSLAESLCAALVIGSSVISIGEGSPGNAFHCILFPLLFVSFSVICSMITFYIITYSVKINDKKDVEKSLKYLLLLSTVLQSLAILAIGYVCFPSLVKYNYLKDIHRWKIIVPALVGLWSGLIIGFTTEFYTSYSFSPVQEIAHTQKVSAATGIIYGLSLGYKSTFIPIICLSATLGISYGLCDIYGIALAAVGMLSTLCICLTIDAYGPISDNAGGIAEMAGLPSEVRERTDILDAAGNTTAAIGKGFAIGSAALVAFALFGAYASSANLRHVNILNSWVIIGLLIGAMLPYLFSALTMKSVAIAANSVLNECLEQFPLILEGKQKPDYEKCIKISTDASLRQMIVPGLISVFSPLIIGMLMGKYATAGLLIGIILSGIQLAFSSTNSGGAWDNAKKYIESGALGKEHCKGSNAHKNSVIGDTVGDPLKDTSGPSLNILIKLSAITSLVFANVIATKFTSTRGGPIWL
# Protocol: We then addressed the potential of 12k and 12l for translation to pathogenic proteins. These analogues differ by replacement of two methyl groups by two tert-butyl groups. In order to do so, we expressed the PfPPase-VP1 gene (PF3D7_1456800) in baculovirus-infected insect cells and performed the inhibition assay on the PfPPase-VP1 in the membrane (the method and further analysis will be described in more detail elsewhere).
# The inhibition assay was measured in 96 well plate assay as previously reported.5,6 Briefly, 1 µL of purified TmPPase (13 mg/mL) was reactivated in 99 µL of reactivation buffer (20 mM 2-(N-morpholino) ethanesulfonic acid (MES) pH 6.5, 3.5% (v/v) glycerol, 2 mM dithiothreitol (DTT), 4.5% dodecyl maltoside (DDM) and 12 mg/mL L-α-phosphatidylcholine from soybean) and incubated at 55 °C for 15 min. For the assay, to each tube strips, 0.2 µL of the reactivated enzyme was added to 14.8 µL of reaction buffer (200 mM Tris-Cl pH 8.0, 8.0 mM MgCl2, 333 mM KCl, and 67 mM NaCl) and 25 µL of inhibitor. The reaction mixtures were sealed with an adhesive sealing sheet (Thermo Scientific) and incubated at 71 °C for 5 min. […] 180 µL of each reaction mixtures was then transferred into a clear 96 well polystyrene microplate and the absorbance was measured at 860 nm using a microplate spectrophotometer (MultiSkan Go, Thermo Scientific). […]
# Sequence of Thermotoga maritima mPPase (TmPPase) (Q9S5X0 whole entry): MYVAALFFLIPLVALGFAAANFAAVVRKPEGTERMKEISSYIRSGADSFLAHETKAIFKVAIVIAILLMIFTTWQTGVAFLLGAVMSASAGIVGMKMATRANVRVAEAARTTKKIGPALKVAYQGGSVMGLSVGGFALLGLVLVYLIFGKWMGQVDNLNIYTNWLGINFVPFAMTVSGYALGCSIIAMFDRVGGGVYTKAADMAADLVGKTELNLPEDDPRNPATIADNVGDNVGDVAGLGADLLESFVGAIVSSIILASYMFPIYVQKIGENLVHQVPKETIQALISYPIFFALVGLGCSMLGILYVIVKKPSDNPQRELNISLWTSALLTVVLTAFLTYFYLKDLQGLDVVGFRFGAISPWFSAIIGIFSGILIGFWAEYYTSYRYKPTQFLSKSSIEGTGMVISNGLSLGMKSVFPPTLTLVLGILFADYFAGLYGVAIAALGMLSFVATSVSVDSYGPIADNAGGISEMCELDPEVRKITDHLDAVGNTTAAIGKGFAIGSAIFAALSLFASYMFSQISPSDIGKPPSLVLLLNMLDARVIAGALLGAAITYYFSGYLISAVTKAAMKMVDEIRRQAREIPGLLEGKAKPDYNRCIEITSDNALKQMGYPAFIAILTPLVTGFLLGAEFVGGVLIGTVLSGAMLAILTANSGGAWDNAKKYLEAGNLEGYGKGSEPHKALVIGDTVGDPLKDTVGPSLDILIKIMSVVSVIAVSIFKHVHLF
smiles,measurement,setting,value
CC(C)(C)c1cc(-c2cc(C(=O)Oc3ccccc3Br)no2)cc(C(C)(C)C)c1 [Compound 12l],LE (ligand efficiency),[1],0.17
same,"IC50, PfPPase-VP1 activity",[2],did not show inhibition at the tested concentrations
